Source: patent US8772480B2, “Inhibitors of PI3 kinase and/or mTOR” (priority 2009, dated 2014)
Like-named read-outs stand apart in the source and are kept apart here.

Tests used:
[1] = molecular target: T1, PI3Kα (Homo sapiens (Human), UniProt P42336); assay: biochemical; details: PI3Kα AlphaScreen ® Ki
[2] = molecular target: T1, PI3Kα; details: read-out: PI3Kα AlphaScreen ® Ki
[3] = molecular target: human mutant B-raf (HuBraf V600E) (Homo sapiens (Human), UniProt P15056, V600E); details: at 10 μM compound concentration; POC = 100 − percent inhibition
Experimental: B-Raf Homogenous Time Resolved Fluorescence (HTRF) Kinase Assay
The final concentration of the kinase reaction buffer is 50 mM Tris-HCl pH 7.5, 10 mM MgCl2, 0.5% glucose, 0.5 mM DTT, 0.01% BSA. […] The detection reaction proceeds for one hour and is read on a RubyStar (BMG Labtech, Durham, N.C.) counter. IC50s for the test compounds are generated using Excel-XLfit software. For single concentration percent of control (POC;=100−percent inhibition) assays, compounds were assayed as above at a single test concentration of 10 M test compound.

[4] = tested on: phosphorylation of Akt at Serine 473 in U87 MG cells; assay: cells; details: Homo sapiens, U-87 MG, 2 h, read-out: U87Cell IC50, pAkt (Ser 473), U87 MG cells, two hours with compound
Experimental: pAkt Aplhascreen (U87 Cell)
This assay was performed using U87 MG cells. […] The cells were maintained weekly using 0.05% Trypsin (Gibco) and replated in 150 mm TC—Treated Culture Dishes (Corning, Corning, N.Y.).
The first day of the assay, the adherent cells were trypsinized, media was added to the loose cells and cells were mixed to a homogenous mixture. 0.5 ml of the homogenous mixture was counted on the Beckman Coulter® Vi-CELL™ XR (Fullerton, Calif.). 50 frames of cells were counted and the number of viable cells was determined. The cells were then diluted to 0.25 million cells per ml, and centrifuged at 200 rcf for 5 minutes. The media was removed and the cells were reconstituted in fresh media for plating. The cells were plated at 20 μl per well on the PerkinElmer® FlexDrop PLUS in Low Volume 384 Well White Tissue Culture Plates (Corning) with a final cell density of 5K cells per well. The plates were incubated overnight at 37° Celsius, 5% CO2.
After two hours, the media in the cell plates was aspirated using the BioTek® ELx405HT plate washer (Winooski, Vt.) removing the majority of media and compound without disturbing the adherent U87 cells. […] The plates were then incubated at room temperature on a shaker for ten minutes. […] The AlphaScreen® reaction was added to the cell lysate at 6 μl per well using the PerkinElmer® FlexDrop PLUS. The plates were placed in a humid environment to reduce edge effects and incubated overnight at room temperature with restricted air flow in the dark.

Sequence of human mutant B-raf (HuBraf V600E) (P15056 whole entry V600E): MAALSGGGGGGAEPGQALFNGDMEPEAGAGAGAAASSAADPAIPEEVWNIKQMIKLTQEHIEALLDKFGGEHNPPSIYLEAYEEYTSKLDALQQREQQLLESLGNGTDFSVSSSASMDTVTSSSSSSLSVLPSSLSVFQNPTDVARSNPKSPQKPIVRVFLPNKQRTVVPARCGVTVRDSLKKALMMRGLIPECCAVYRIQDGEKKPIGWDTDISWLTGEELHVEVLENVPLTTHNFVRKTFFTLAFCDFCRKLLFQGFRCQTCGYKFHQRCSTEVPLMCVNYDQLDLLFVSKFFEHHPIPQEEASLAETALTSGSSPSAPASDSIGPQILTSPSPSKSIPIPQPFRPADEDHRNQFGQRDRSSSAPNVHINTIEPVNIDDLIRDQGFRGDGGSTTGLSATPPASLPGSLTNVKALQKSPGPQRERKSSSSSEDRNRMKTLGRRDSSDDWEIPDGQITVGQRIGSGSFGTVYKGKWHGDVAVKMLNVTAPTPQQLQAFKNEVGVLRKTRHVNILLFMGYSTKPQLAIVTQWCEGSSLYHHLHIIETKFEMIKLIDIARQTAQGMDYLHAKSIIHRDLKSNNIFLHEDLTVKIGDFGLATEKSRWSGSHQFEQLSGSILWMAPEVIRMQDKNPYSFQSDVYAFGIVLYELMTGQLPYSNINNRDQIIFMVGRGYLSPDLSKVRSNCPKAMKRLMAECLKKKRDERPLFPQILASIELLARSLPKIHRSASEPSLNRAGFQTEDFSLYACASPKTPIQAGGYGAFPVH
T1 sequence (P42336 whole entry): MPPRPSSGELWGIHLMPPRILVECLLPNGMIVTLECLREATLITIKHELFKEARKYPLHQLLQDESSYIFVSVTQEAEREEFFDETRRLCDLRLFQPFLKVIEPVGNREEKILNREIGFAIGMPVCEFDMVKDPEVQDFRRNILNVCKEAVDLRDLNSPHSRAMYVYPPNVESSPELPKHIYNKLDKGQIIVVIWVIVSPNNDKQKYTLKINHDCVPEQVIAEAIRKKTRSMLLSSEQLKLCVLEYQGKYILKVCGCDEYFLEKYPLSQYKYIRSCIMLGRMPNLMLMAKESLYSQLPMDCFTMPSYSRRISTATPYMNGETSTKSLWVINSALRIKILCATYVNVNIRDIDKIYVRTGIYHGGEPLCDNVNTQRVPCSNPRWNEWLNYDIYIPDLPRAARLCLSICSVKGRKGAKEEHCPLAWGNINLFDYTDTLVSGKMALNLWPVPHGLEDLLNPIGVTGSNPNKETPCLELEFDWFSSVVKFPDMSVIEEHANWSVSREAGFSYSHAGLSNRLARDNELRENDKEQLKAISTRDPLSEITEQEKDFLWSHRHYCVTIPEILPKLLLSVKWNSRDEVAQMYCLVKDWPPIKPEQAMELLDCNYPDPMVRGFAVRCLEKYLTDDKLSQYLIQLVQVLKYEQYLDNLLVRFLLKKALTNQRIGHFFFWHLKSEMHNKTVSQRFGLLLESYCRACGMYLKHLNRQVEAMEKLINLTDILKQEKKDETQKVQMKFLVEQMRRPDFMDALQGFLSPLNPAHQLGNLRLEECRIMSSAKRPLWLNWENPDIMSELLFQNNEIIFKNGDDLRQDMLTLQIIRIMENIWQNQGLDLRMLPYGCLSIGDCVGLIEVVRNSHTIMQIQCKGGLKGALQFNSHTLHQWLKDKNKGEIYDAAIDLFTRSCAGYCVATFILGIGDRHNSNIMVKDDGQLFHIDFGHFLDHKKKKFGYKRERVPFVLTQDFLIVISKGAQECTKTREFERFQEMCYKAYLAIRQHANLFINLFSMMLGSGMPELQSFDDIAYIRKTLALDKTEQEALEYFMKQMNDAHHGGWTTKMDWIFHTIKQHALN
T1 sequence (P27986 whole entry partner): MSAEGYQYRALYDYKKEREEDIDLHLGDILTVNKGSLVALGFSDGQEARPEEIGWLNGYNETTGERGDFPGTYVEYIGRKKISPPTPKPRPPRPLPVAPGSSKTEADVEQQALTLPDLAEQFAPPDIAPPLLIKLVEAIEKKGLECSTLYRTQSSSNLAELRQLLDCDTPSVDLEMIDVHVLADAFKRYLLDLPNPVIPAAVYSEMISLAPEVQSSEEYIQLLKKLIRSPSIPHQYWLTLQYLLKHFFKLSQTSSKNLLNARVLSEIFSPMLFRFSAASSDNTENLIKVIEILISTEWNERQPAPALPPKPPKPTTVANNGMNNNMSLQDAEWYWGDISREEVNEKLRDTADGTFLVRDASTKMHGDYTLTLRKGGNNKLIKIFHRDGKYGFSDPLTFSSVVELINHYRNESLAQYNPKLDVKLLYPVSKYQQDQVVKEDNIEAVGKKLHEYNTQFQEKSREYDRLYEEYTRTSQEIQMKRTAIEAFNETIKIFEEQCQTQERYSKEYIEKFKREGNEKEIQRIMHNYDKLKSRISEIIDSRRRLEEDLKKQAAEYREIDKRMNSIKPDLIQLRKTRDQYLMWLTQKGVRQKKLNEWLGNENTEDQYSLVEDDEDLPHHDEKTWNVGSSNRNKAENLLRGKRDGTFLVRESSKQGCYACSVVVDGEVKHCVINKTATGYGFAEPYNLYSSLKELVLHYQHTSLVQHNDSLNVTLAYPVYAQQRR

Compound | Ki [1] | Ki [2] | Mutant B-raf HTRF Assay POC Mean n = 2 [3] | IC50 [4]
COc1ncc(Nc2ncc(C(C)CO)cc2-c2nc(C)nc(N)n2)cc1F (single isomer, unassigned) [312 First eluting, 2-(5-(4-Amino-6-methyl-1,3,5-triazin-2-yl)-6-(5-fluoro-6-methoxypyridin-3-ylamino)pyridin-3-yl)propan-1-ol] | 9 nM | – | – | –
COc1ncc(Nc2ncc(C(C)CO)cc2-c2nc(C)nc(N)n2)cc1F (single isomer, unassigned) [312 Second eluting, 2-(5-(4-Amino-6-methyl-1,3,5-triazin-2-yl)-6-(5-fluoro-6-methoxypyridin-3-ylamino)pyridin-3-yl)propan-1-ol] | 7 nM | – | – | –
CC(=O)Nc1ccc(Nc2ncccc2-c2ncnc3[nH]cnc23)cn1 [Example 16, N-(5-(3-(9H-Purin-6-yl)Pyridin-2-Ylamino)Pyridin-2-yl)Acetamide] | – | > 1500 nM | 42% of Control (POC) | –
Nc1ccc(Nc2ncccc2-c2ncnc3[nH]cnc23)cn1 [Example 17, N3-(3-(9H-Purin-6-yl)Pyridin-2-yl)Pyridine-3,6-Diamine] | – | > 1500 nM | 38% of Control (POC) | –
Cc1nc(N)nc(-c2cccnc2Nc2cccc3[nH]ncc23)n1 [Example 24, N-(3-(4-Amino-6-Methyl-1,3,5-Triazin-2-yl)Pyridin-2-yl)-1H-Indazol-4-Amine] | – | – | 94% of Control (POC) | –
COc1ccc(Nc2ncccc2-c2nc(C)nc(N)n2)cn1 [Example 25, 4-(2-(6-Methoxypyridin-3-Ylamino)Pyridin-3-yl)-6-Methyl-1,3,5-Triazin-2-Amine] | – | – | 95% of Control (POC) | –
Cc1nc(N)cc(-c2cccnc2Nc2cccc(O)c2)n1 [Example 26, 3-(3-(6-Amino-2-Methylpyrimidin-4-yl)Pyridin-2-Ylamino)Phenol] | – | 24 nM | 84% of Control (POC) | –
COc1ccc(Nc2ncc(C)cc2-c2nc(C)nc(N)n2)cn1 [Example 31, 4-(2-(6-Methoxypyridin-3-Ylamino)-5-Methylpyridin-3-yl)-6-Methyl-1,3,5-Triazin-2-Amine] | – | – | 97% of Control (POC) | –
Cc1cnc(Nc2cccnc2)c(-c2nc(C)nc(N)n2)c1 [Example 32, Methyl-6-(5-Methyl-2-(Pyridin-3-Ylamino)Pyridin-3-yl)-1,3,5-Triazin-2-Amine] | – | 191 nM | 107% of Control (POC) | 587 nM
COc1cnc(Nc2ccc(OC)nc2)c(-c2nc(C)nc(N)n2)c1 [Example 33, 4-(5-Methoxy-2-(6-Methoxypyridin-3-Ylamino)Pyridin-3-yl)-6-Methyl-1,3,5-Triazin-2-Amine] | – | – | 94% of Control (POC) | –
COc1ccc(Nc2ncc(CN3CCN(S(C)(=O)=O)CC3)cc2-c2nc(C)nc(N)n2)cn1 [Example 35, 4-(2-(6-methoxypyridin-3-ylamino)-5-((4-(methylsulfonyl)piperazin-1-yl)methyl)pyridin-3-yl)-6-methyl-1,3,5-triazin-2-amine] | – | – | 98% of Control (POC) | –
COc1ccc(Nc2ncc(CN3CCNCC3)cc2-c2nc(C)nc(N)n2)cn1 [Example 41, 4-(2-(6-methoxypyridin-3-ylamino)-5-(piperazin-1-ylmethyl)pyridin-3-yl)-6-methyl-1,3,5-triazin-2-amine] | – | – | 96% of Control (POC) | –
COc1ccc(Nc2ncc(CN3CCOCC3)cc2-c2nc(C)nc(N)n2)cn1 [Example 44, 4-(2-(6-methoxypyridin-3-ylamino)-5-(morpholinomethyl)pyridin-3-yl)-6-methyl-1,3,5-triazin-2-amine] | – | – | 94% of Control (POC) | –
Cc1nc(N)nc(-c2cccnc2Nc2ccc(N)nc2)n1 [Example 50, N5-(3-(4-Amino-6-Methyl-1,3,5-Triazin-2-yl)Pyridin-2-yl)Pyridine-2,5-Diamine] | – | 1330 nM | 87% of Control (POC) | 3070 nM
Cc1nc(-c2cccnc2Nc2cccc3[nH]ncc23)c2cn[nH]c2n1 [Example 55, N-(3-(6-methyl-1H-pyrazolo[3,4-d]pyrimidin-4-yl)pyridin-2-yl)-1H-indazol-4-amine] | – | 1410 nM | 103% of Control (POC) | –
Cc1nc(-c2cccnc2Nc2cccc3[nH]ccc23)c2nc[nH]c2n1 [Example 56, N-(3-(2-methyl-9H-purin-6-yl)pyridin-2-yl)-1H-indol-4-amine] | – | – | 58% of Control (POC) | –

Compound | Ki [1] | Ki [2] | Mutant B-raf HTRF Assay POC Mean n = 2 [3] | IC50 [4]
Cc1nc(-c2cc(Cl)cnc2Nc2cccc3[nH]ncc23)c2nc[nH]c2n1 [Example 61, N-(5-Chloro-3-(2-methyl-9H-purin-6-yl)pyridin-2-yl)-1H-indazol-4-amine] | – | 720 nM | 66% of Control (POC) | 3630 nM
Cc1nc(-c2cc(Br)cnc2Nc2cccc3[nH]ncc23)c2nc[nH]c2n1 [Example 64, N-(5-bromo-3-(2-methyl-9H-purin-6-yl)pyridin-2-yl)-1H-indazol-4-amine] | – | 50 nM | 107% of Control (POC) | > 10000 nM
Cc1nc(-c2cc(C(F)(F)F)cnc2Nc2cccc3[nH]ncc23)c2nc[nH]c2n1 [Example 65, N-(3-(2-Methyl-9H-Purin-6-yl)-5-(Trifluoromethyl)Pyridine-2-yl)-1H-Indazol-4-Amine] | – | 119 nM | 85% of Control (POC) | –
COc1ncc(Nc2ncccc2-c2nc(C)nc3[nH]cnc23)cn1 [Example 66, 2-Methoxy-N-(3-(2-Methyl-9H-Purin-6-yl)Pyridin-2-yl)Pyrimidin-5-Amine] | – | 62 nM | 103% of Control (POC) | 173 nM
COc1ccc(COCc2cnc(Nc3cccc4[nH]ccc34)c(-c3nc(C)nc4[nH]cnc34)c2)cc1 [Example 71, N-(5-((4-methoxybenzyloxy)methyl)-3-(2-methyl-9H-purin-6-yl)pyridin-2-yl)-1H-indol-4-amine] | – | 402 nM | 75% of Control (POC) | 1190 nM
Cc1nc(-c2cc(CO)cnc2Nc2cccc3[nH]ncc23)c2nc[nH]c2n1 [Example 72, (6-(1H-indazol-4-ylamino)-5-(2-methyl-9H-purin-6-yl)pyridin-3-yl)methanol] | – | 33 nM | 77% of Control (POC) | 8530 nM
C=Cc1cnc(Nc2ccc(OC)nc2)c(-c2nc(C)nc3[nH]cnc23)c1 [Example 73, N-(6-methoxypyridin-3-yl)-3-(2-methyl-9H-purin-6-yl)-5-vinylpyridin-2-amine] | – | – | 108% of Control (POC) | 554 nM
COc1ccc(Nc2ncc(CCO)cc2-c2nc(C)nc3[nH]cnc23)cn1 [Example 75, 2-(6-(6-methoxypyridin-3-ylamino)-5-(2-methyl-9H-purin-6-yl)pyridin-3-yl)ethanol] | – | 23 nM | 94% of Control (POC) | 179 nM
COc1ccc(Nc2ncc(CO)cc2-c2nc(C)nc3[nH]cnc23)cn1 [Example 76, (6-(6-Methoxypyridin-3-Ylamino)-5-(2-Methyl-9H-Purin-6-yl)Pyridin-3-yl)Methanol] | – | 44 nM | 108% of Control (POC) | 195 nM
COc1ccc(Nc2ncc(CN3CCNCC3)cc2-c2nc(C)nc3[nH]cnc23)cn1 [Example 84, N-(6-methoxypyridin-3-yl)-3-(2-methyl-9H-purin-6-yl)-5-(piperazin-1-ylmethyl)pyridin-2-amine] | – | 97 nM | 97% of Control (POC) | 1910 nM
COc1ccc(Nc2ncc(CN3CCN(S(C)(=O)=O)CC3)cc2-c2nc(C)nc3[nH]cnc23)cn1 [Example 85, N-(6-methoxypyridin-3-yl)-3-(2-methyl-9H-purin-6-yl)-5-((4-(methylsulfonyl)piperazin-1-yl)methyl)pyridin-2-amine] | – | 19 nM | 90% of Control (POC) | 133 nM
COc1ccc(Nc2cnc(Nc3ccc(OC)nc3)c(-c3nc(C)nc4[nH]cnc34)c2)cc1 [Example 90, N5-(4-methoxyphenyl)-N2-(6-methoxypyridin-3-yl)-3-(2-methyl-9H-purin-6-yl)pyridine-2,5-diamine] | – | 9 nM | 99% of Control (POC) | 129 nM
COc1ccc(Nc2ncc(N3CCOCC3)cc2-c2nc(C)nc3[nH]cnc23)cn1 [Example 97] | – | 107 nM | 96% of Control (POC) | 441 nM
Cc1nc(N)cc(-c2cnccc2Nc2cccc3[nH]ncc23)n1 [Example 107, N-(3-(6-amino-2-methylpyrimidin-4-yl)pyridin-4-yl)-1H-indazol-4-amine] | – | 359 nM | 62% of Control (POC) | 1540 nM
Cc1nc(N)cc(-c2cnccc2Nc2cccc3[nH]ccc23)n1 [Example 109, N-(3-(6-amino-2-methylpyrimidin-4-yl)pyridin-4-yl)-1H-indol-4-amine] | – | – | 35% of Control (POC) | 821 nM
COc1ccc(Nc2ncc([C@@H](O)C(C)(C)C)cc2-c2nc(C)nc3c2ncn3C2CCCCO2)cn1 (stereo partly drawn) [Example 132, (1S)-1-(6-(6-Methoxypyridin-3-Ylamino)-5-(2-Methyl-9-(Tetrahydro-2H-Pyran-2-yl)-9H-Purin-6-yl)Pyridin-3-yl)-2,2-Dimethylpropan-1-ol] | 12 nM | – | – | 147 nM
